From US20180051017A1, “AGENT FOR TREATMENT OF SCHIZOPHRENIA” (Sumitomo Dainippon Pharma Co., Ltd., priority 2002, published 2018)
Counter-ions that a name gives are not always drawn.

System: patients with schizophrenia in the acute exacerbation phase
Test: First stage phase II clinical trial: safety (adverse events, serious adverse events, side effects, ECG, laboratory tests)
Assay type: in vivo, human
Experimental: According to the procedures as shown in Table 1 as described below, the placebo-controlled double blind experiment was done on 149 patients with schizophrenia in the acute exacerbation phase at 15 facilities in USA. The efficacy and safeness were studied when SM-13496 at a dose of 40 mg or 120 mg, or a placebo was orally administered once a day for 6 weeks after placebo washout.

[1] = 40 mg orally once a day for 6 weeks, 50 subjects

SMILES: O=C1[C@@H]2[C@@H]3CC[C@@H](C3)[C@@H]2C(=O)N1C[C@@H]1CCCC[C@H]1CN1CCN(c2nsc3ccccc23)CC1 [SM-13496, (1R,2S,3R,4S)-N-[(1R,2R)-2-[4-(1,2-benzoisothiazol-3-yl)-1-piperazinyl-methyl]-1-cyclohexylmethyl]-2,3-bicyclo[2.2.1]heptanedicarboximide hydrochloride]
- Relationship of the serious adverse events to the tested medicament (40 mg and 120 mg groups): denied
- Body weight gain, bulimia, impotence, erectile dysfunction or convulsion (40 mg or 120 mg, 6 weeks): not observed
- Change in 12-lead electrocardiogram (40 mg or 120 mg, 6 weeks): no clinically significant change
- Number of subjects showing adverse events (%) [1]: 40 (80) number of subjects (%)
- Number of subjects showing serious adverse events (%) [1]: 3 (6) number of subjects (%)
- Number of subjects who drop out from the trial due to adverse events (%) [1]: 6 (12) number of subjects (%)
- Ratio of the patients having an abnormal change in laboratory values among the groups (40 mg, 120 mg and placebo groups): no significant difference
- Occurrence of adverse event: Akathisia (40 mg, 6 weeks, 50 subjects): 4 (8) number of subjects (%)
- Occurrence of adverse event: Digestive disturbance (40 mg, 6 weeks, 50 subjects): 4 (8) number of subjects (%)
- Occurrence of adverse event: Drowsiness (40 mg, 6 weeks, 50 subjects): 4 (8) number of subjects (%)
- Occurrence of adverse event: Exacerbation of schizophrenia (40 mg, 6 weeks, 50 subjects): 2 (4) number of subjects (%)
- Occurrence of adverse event: Free-floating vertigo (excluding rotatory vertigo) (40 mg, 6 weeks, 50 subjects): 6 (12) number of subjects (%)
- Occurrence of adverse event: Headache (40 mg, 6 weeks, 50 subjects): 8 (16) number of subjects (%)
- Occurrence of adverse event: Nausea (40 mg, 6 weeks, 50 subjects): 5 (10) number of subjects (%)
- Occurrence of adverse event: Suppression (40 mg, 6 weeks, 50 subjects): 9 (18) number of subjects (%)
- Occurrence of serious adverse event: Exacerbation of paranoia (40 mg, 6 weeks, 50 subjects): 1 (2) number of subjects (%)
- Occurrence of serious adverse event: Exacerbation of schizophrenia (40 mg, 6 weeks, 50 subjects): 1 (2) number of subjects (%)
- Occurrence of serious adverse event: Paranoid schizophrenia (40 mg, 6 weeks, 50 subjects): 0 (0) number of subjects (%)
- Occurrence of serious adverse event: Psychosis aggravated (40 mg, 6 weeks, 50 subjects): 1 (2) number of subjects (%)
- Occurrence of side effects (%) (40 mg, 6 weeks, 50 subjects): 33 (66) number of subjects (%)
- Serious adverse events: Total (%) (40 mg, 6 weeks, 50 subjects): 3 (6) number of subjects (%)
- Side effect: Abdominal pain (Gastroenteric disturbance) (40 mg, 6 weeks, 50 subjects): 0 (0) number of subjects (%)
- Side effect: Abnormal electrocardiogram (Laboratory assay) (40 mg, 6 weeks, 50 subjects): 0 (0) number of subjects (%)
- Side effect: Abnormal liver function tests (Laboratory assay) (40 mg, 6 weeks, 50 subjects): 0 (0) number of subjects (%)
- Side effect: Agitation (Mental disturbance) (40 mg, 6 weeks, 50 subjects): 0 (0) number of subjects (%)
- Side effect: Agitation aggravated (Mental disturbance) (40 mg, 6 weeks, 50 subjects): 0 (0) number of subjects (%)
- Side effect: Akathisia (Nervous system disorder) (40 mg, 6 weeks, 50 subjects): 4 (8) number of subjects (%)
- Side effect: Akathisia aggravated (Nervous system disorder) (40 mg, 6 weeks, 50 subjects): 1 (2) number of subjects (%)
- Side effect: Anarthria (Nervous system disorder) (40 mg, 6 weeks, 50 subjects): 0 (0) number of subjects (%)
- Side effect: Anorexia (Metabolic disturbances and nutritional disturbance) (40 mg, 6 weeks, 50 subjects): 1 (2) number of subjects (%)
- Side effect: Anxiety aggravated (Mental disturbance) (40 mg, 6 weeks, 50 subjects): 1 (2) number of subjects (%)
- Side effect: Articular rigidity (Musculoskeletal system and connective tissue disorder) (40 mg, 6 weeks, 50 subjects): 1 (2) number of subjects (%)
- Side effect: Blurred vision (Ocular disturbance) (40 mg, 6 weeks, 50 subjects): 1 (2) number of subjects (%)
- Side effect: Breathing difficulty (Disturbance in respiratory organ, chest and mediastinum) (40 mg, 6 weeks, 50 subjects): 0 (0) number of subjects (%)
- Side effect: Cervical rigidity (Musculoskeletal system and connective tissue disorder) (40 mg, 6 weeks, 50 subjects): 1 (2) number of subjects (%)
- Side effect: Cogwheel rigidity (Nervous system disorder) (40 mg, 6 weeks, 50 subjects): 0 (0) number of subjects (%)
- Side effect: Constipation (Gastroenteric disturbance) (40 mg, 6 weeks, 50 subjects): 2 (4) number of subjects (%)
- Side effect: Decrease in appetite (Metabolic disturbances and nutritional disturbance) (40 mg, 6 weeks, 50 subjects): 1 (2) number of subjects (%)
- Side effect: Diarrhea (Gastroenteric disturbance) (40 mg, 6 weeks, 50 subjects): 3 (6) number of subjects (%)
- Side effect: Drowsiness (Nervous system disorder) (40 mg, 6 weeks, 50 subjects): 4 (8) number of subjects (%)
- Side effect: Dry eye (Ocular disturbance) (40 mg, 6 weeks, 50 subjects): 0 (0) number of subjects (%)
- Side effect: Dry mouth (Gastroenteric disturbance) (40 mg, 6 weeks, 50 subjects): 0 (0) number of subjects (%)
- Side effect: Dyspepsia (Gastroenteric disturbance) (40 mg, 6 weeks, 50 subjects): 3 (6) number of subjects (%)
- Side effect: Dystonic reaction (Nervous system disorder) (40 mg, 6 weeks, 50 subjects): 1 (2) number of subjects (%)
- Side effect: Exacerbation of insomnia (Mental disturbance) (40 mg, 6 weeks, 50 subjects): 0 (0) number of subjects (%)
- Side effect: External otitis (Infection and parasitosis) (40 mg, 6 weeks, 50 subjects): 1 (2) number of subjects (%)
- Side effect: Extrapyramidal disease (Nervous system disorder) (40 mg, 6 weeks, 50 subjects): 1 (2) number of subjects (%)
- Side effect: Fatigue (Total disability and local condition) (40 mg, 6 weeks, 50 subjects): 3 (6) number of subjects (%)
- Side effect: Fatigue aggravated (Total disability and local condition) (40 mg, 6 weeks, 50 subjects): 1 (2) number of subjects (%)
- Side effect: Flatulence (Gastroenteric disturbance) (40 mg, 6 weeks, 50 subjects): 1 (2) number of subjects (%)
- Side effect: Flushing (Vascular diseases) (40 mg, 6 weeks, 50 subjects): 0 (0) number of subjects (%)
- Side effect: Free-floating vertigo (excluding rotatory vertigo) (Nervous system disorder) (40 mg, 6 weeks, 50 subjects): 5 (10) number of subjects (%)
- Side effect: Frequent urination (Renal Injury and urinary disorder) (40 mg, 6 weeks, 50 subjects): 0 (0) number of subjects (%)
- Side effect: Glossoplegia (Nervous system disorder) (40 mg, 6 weeks, 50 subjects): 0 (0) number of subjects (%)
- Side effect: Headache (Nervous system disorder) (40 mg, 6 weeks, 50 subjects): 6 (12) number of subjects (%)
- Side effect: Heavy feeling (Musculoskeletal system and connective tissue disorder) (40 mg, 6 weeks, 50 subjects): 1 (2) number of subjects (%)
- Side effect: Hot flashes (Vascular diseases) (40 mg, 6 weeks, 50 subjects): 0 (0) number of subjects (%)
- Side effect: Hot sensation (Total disability and local condition) (40 mg, 6 weeks, 50 subjects): 0 (0) number of subjects (%)
- Side effect: Increase in creatine phosphokinase level in the blood (Laboratory assay) (40 mg, 6 weeks, 50 subjects): 1 (2) number of subjects (%)
- Side effect: Increase in prolactin level in the blood (Laboratory assay) (40 mg, 6 weeks, 50 subjects): 1 (2) number of subjects (%)
- Side effect: Increase in total protein (Laboratory assay) (40 mg, 6 weeks, 50 subjects): 1 (2) number of subjects (%)
- Side effect: Insomnia (Mental disturbance) (40 mg, 6 weeks, 50 subjects): 1 (2) number of subjects (%)
- Side effect: Laryngopharynx pain (Disturbance in respiratory organ, chest and mediastinum) (40 mg, 6 weeks, 50 subjects): 1 (2) number of subjects (%)
- Side effect: Loose stools (Gastroenteric disturbance) (40 mg, 6 weeks, 50 subjects): 0 (0) number of subjects (%)
- Side effect: Melalgia (Musculoskeletal system and connective tissue disorder) (40 mg, 6 weeks, 50 subjects): 0 (0) number of subjects (%)
- Side effect: Muscle stiffness (Musculoskeletal system and connective tissue disorder) (40 mg, 6 weeks, 50 subjects): 2 (4) number of subjects (%)
- Side effect: Myalgic pain (Musculoskeletal system and connective tissue disorder) (40 mg, 6 weeks, 50 subjects): 0 (0) number of subjects (%)
- Side effect: Nausea (Gastroenteric disturbance) (40 mg, 6 weeks, 50 subjects): 4 (8) number of subjects (%)
- Side effect: Nightmare (Mental disturbance) (40 mg, 6 weeks, 50 subjects): 0 (0) number of subjects (%)
- Side effect: Palpitation (Heart problems) (40 mg, 6 weeks, 50 subjects): 0 (0) number of subjects (%)
- Side effect: Parotiditis (Infection and parasitosis) (40 mg, 6 weeks, 50 subjects): 0 (0) number of subjects (%)
- Side effect: Polyuria (Renal Injury and urinary disorder) (40 mg, 6 weeks, 50 subjects): 0 (0) number of subjects (%)
- Side effect: Pruritus (Disturbance in Skin and Hypodermis) (40 mg, 6 weeks, 50 subjects): 0 (0) number of subjects (%)
- Side effect: Psychosis aggravated (Mental disturbance) (40 mg, 6 weeks, 50 subjects): 0 (0) number of subjects (%)
- Side effect: Restlessness (Mental disturbance) (40 mg, 6 weeks, 50 subjects): 1 (2) number of subjects (%)
- Side effect: Salivary hypersecretion (Gastroenteric disturbance) (40 mg, 6 weeks, 50 subjects): 0 (0) number of subjects (%)
- Side effect: Sinus tachycardia (Heart problems) (40 mg, 6 weeks, 50 subjects): 0 (0) number of subjects (%)
- Side effect: Sleepiness (Total disability and local condition) (40 mg, 6 weeks, 50 subjects): 1 (2) number of subjects (%)
- Side effect: Suppression (Nervous system disorder) (40 mg, 6 weeks, 50 subjects): 9 (18) number of subjects (%)
- Side effect: Tinea pedis (Infection and parasitosis) (40 mg, 6 weeks, 50 subjects): 0 (0) number of subjects (%)
- Side effect: Tongue disturbance (Gastroenteric disturbance) (40 mg, 6 weeks, 50 subjects): 1 (2) number of subjects (%)
- Side effect: Tremor (Nervous system disorder) (40 mg, 6 weeks, 50 subjects): 3 (6) number of subjects (%)
- Side effect: Trismus (Nervous system disorder) (40 mg, 6 weeks, 50 subjects): 0 (0) number of subjects (%)
- Side effect: Urinary tract infection (Infection and parasitosis) (40 mg, 6 weeks, 50 subjects): 1 (2) number of subjects (%)
- Side effect: Vomiting (Gastroenteric disturbance) (40 mg, 6 weeks, 50 subjects): 2 (4) number of subjects (%)
- Side effect: Weight loss (Laboratory assay) (40 mg, 6 weeks, 50 subjects): 1 (2) number of subjects (%)
- Akathisia (adverse event) (40 mg-treated group): 8%
- Exacerbation of schizophrenia (adverse event) (40 mg-treated group): 4%
- Ratio of the subjects showing suppression (40 mg-treated group): 18%
- Serious adverse events (40 mg-treated group): 3 cases
- Number of subjects showing adverse events (%) (120 mg orally once a day for 6 weeks, 49 subjects): 38 (78) number of subjects (%)
